Source: publication PMC8231969, “Characterization of Two NMN Deamidase Mutants as Possible Probes for an NMN Biosensor” (International Journal of Molecular Sciences, 2021)
Read-outs that look alike come from different tables or passages of the source.

What was measured:
S29A PncC = target: T1, S29A PncC (Escherichia coli, UniProt P0A6G3, S29A); assay type: binding, E. coli
T1 construct: made in house; host or cells: E. coli BL21(DE3)
From the text: (§1) Experimental data were processed using the OriginPro 8.0 (OriginLab Corporation, Northampton, MA, USA). A non-linear curve analysis (Hill1 plot) was used for plotting the F0/F values in function of the metabolite concentration, to obtain the Kd value.

K61Q PncC [1] = target: T2, K61Q PncC (Escherichia coli, UniProt P0A6G3, K61Q); assay type: binding, E. coli
T2 construct: made in house; host or cells: E. coli BL21(DE3)
Experimental: as §1
Percentage of the K61Q protein that would exist in complex with NMN in a cellular setting was calculated based on the Kd value, by using the equation: %=100/1+Kd/[NMN]

[2] = tested on: glutamine binding protein (GlnBP); details: for reduction of fluorescence of GlnBP: high concentration of nucleotide
Experimental: Steady-state measurements were performed using an ISS_K2 fluorometer (ISS, Urbana-Champaign, IL, USA), equipped with a one-cell temperature-controlled sample holder. […] Excitation and emission slit widths were fixed at 0.5 and 1.0 nm, respectively. […] The nucleotides were added to reach the indicated final concentration (from 0.18 to 96 µM) with an incubation interval of 10 min. Triplicate readings were done for each experimental point. Experiments were repeated three times (for NMN and NaMN) or twice (for all the other metabolites). Controls experiments were performed using the E. coli Glutamine Binding Protein (GlnBP, 3µM), with increasing concentration of NMN or NaMN, at the same conditions.
Percentages of reduction of fluorescence intensities compared to buffer, were calculated as follow: (normalized fluorescence in presence of analyte at a given [µM]/normalized fluorescence in presence of corresponding volume of buffer) × 100.

K61Q PncC [3] = target: T2, K61Q PncC; assay: biochemical; assay type: binding, E. coli; details: K61Q PncC, at 70 °C
[4] = target: the molecule itself; assay: SEC; gel filtration on Superose 12 HR 10/30, 50 mM HEPES pH 7.5, 0.3 M NaCl, 1 mM TCEP; 45 ug wild type, 30 ug mutants; calibrated with protein standards; self-association (dimer)
[5] = Thermal stability (melting temperature) of PncC proteins without ligand; assay type: physicochemical; details: absence of NMN
Experimental: Protein melting temperature (Tm) was determined by fluorescence-based thermal shift assay using fluoroprobe SYPRO Orange dye (Invitrogen, Waltham, MA, USA). The assay was performed in a RotorGene 3000 real-time PCR (Corbett, Biocompare, San Francisco, CA, USA). The assay mixture contained 50 mM Hepes/NaOH, pH 7.5, 300 mM NaCl, 1 mM TCEP, 1 μM protein, Sypro orange at 10-fold dilution from a 5000-fold stock, and the various ligands at the tested concentrations, in a final volume of 25 μL. The mixtures were pre-heated at 40 °C for 5 s, then heated to 50 °C in 1 s, and finally heated from 50 to 99 °C with a heating-up rate of 0.5 °C every 5 s. The fluorescence intensity was measured with Ex/Em: 470/585 nm. The melting temperature was determined by taking the maximum point of the slope-derivative peak. Kd values were determined by plotting the percentage of unfolded proteins as a function of nucleotide concentration at a fixed temperature, after normalization of the unfolding curves. Fitting of the data was performed using the equations reported in [34]. Three independent experiments were carried out and values were reported as the means ± standard deviation.

Molecule | S29A PncC fluorescence quenching (%) vs buffer (S29A PncC; nucleotide 0.185 µM) [%] | S29A PncC fluorescence quenching (%) vs buffer (S29A PncC; nucleotide 0.375 µM) [%] | S29A PncC fluorescence quenching (%) vs buffer (S29A PncC; nucleotide 0.75 µM) [%] | S29A PncC fluorescence quenching (%) vs buffer (S29A PncC; nucleotide 1.5 µM) [%] | S29A PncC fluorescence quenching (%) vs buffer (S29A PncC; nucleotide 3 µM) [%] | S29A PncC fluorescence quenching (%) vs buffer (S29A PncC; nucleotide 6 µM) [%] | S29A PncC fluorescence quenching (%) vs buffer (S29A PncC; nucleotide 12 µM) [%] | S29A PncC fluorescence quenching (%) vs buffer (S29A PncC; nucleotide 24 µM) [%] | S29A PncC fluorescence quenching (%) vs buffer (S29A PncC; nucleotide 48 µM) [%] | K61Q PncC fluorescence quenching (%) vs buffer (K61Q PncC [1]; nucleotide 0.185 µM) [%] | K61Q PncC fluorescence quenching (%) vs buffer (K61Q PncC [1]; nucleotide 0.375 µM) [%] | K61Q PncC fluorescence quenching (%) vs buffer (K61Q PncC [1]; nucleotide 0.75 µM) [%] | K61Q PncC fluorescence quenching (%) vs buffer (K61Q PncC [1]; nucleotide 1.5 µM) [%] | K61Q PncC fluorescence quenching (%) vs buffer (K61Q PncC [1]; nucleotide 3 µM) [%] | K61Q PncC fluorescence quenching (%) vs buffer (K61Q PncC [1]; nucleotide 6 µM) [%] | K61Q PncC fluorescence quenching (%) vs buffer (K61Q PncC [1]; nucleotide 12 µM) [%] | K61Q PncC fluorescence quenching (%) vs buffer (K61Q PncC [1]; nucleotide 24 µM) [%] | K61Q PncC fluorescence quenching (%) vs buffer (K61Q PncC [1]; nucleotide 48 µM) [%] | reduction of fluorescence of GlnBP [2] | stoichiometry N [4] | other results
O=C(O)c1cccnc1 [Na, nicotinic acid] | 0 | 0 | 0 | 0 | 0 | 0 | 0 | 0.16 | 0.62 | 0.49 | 1.2 | 2.11 | 2.66 | 2.89 | 2.81 | 3.26 | 2.74 | 3.69 | do not affect | – | –
Nc1ncnc2c1ncn2[C@@H]1O[C@H](COP(=O)(O)OP(=O)([O-])OC[C@H]2O[C@@H]([n+]3cccc(C(=O)O)c3)[C@H](O)[C@@H]2O)[C@@H](O)[C@H]1O [NaAD, nicotinic acid adenine dinucleotide] | 0 | 0 | 0 | 0 | 0 | 0 | 0 | 0 | 1.97 | 0.65 | 1.02 | 1.68 | 2.19 | 2.25 | 2.39 | 3.72 | 4.13 | 5.77 | 6.3% | – | –
O=C(O)c1ccc[n+]([C@@H]2O[C@H](COP(=O)([O-])O)[C@@H](O)[C@H]2O)c1 [NaMN, nicotinic acid mononucleotide] | 1.79 | 2.56 | 6.47 | 20.83 | 30.74 | 30.87 | 40.52 | 47.93 | 52.28 | 0.71 | 1.11 | 2.05 | 2.12 | 2.82 | 2.80 | 4.14 | 4.9 | 7.14 | – | – | Kd (thermal shift) (K61Q PncC [3]): not possible to determine Kd; apparent Kd (Trp fluorescence) (K61Q PncC [1]; K61Q PncC, at 25 °C): not possible to determine Kd; K61Q PncC fluorescence quenching (%) vs buffer (K61Q PncC [1]; nucleotide 96 µM): 10.68%; quenching of fluorescence of GlnBP ([2]; GlnBP 3 µM, 96 µM nucleotide): 4.3%
NC(=O)c1cccnc1 [Nam, nicotinamide] | 0.08 | 0.18 | 0.48 | 1.49 | 2.51 | 2.65 | 3.29 | 3.29 | 3.71 | 0 | 0.34 | 0.87 | 0.68 | 0.91 | 0.26 | 1.15 | 1.04 | 1.14 | do not affect | – | S29A PncC fluorescence quenching (%) vs buffer (S29A PncC; nucleotide 96 µM (maximum quenching)): 5.01%
NMN deamidase (PncC) from E. coli, wild type (enzyme, UniProt P0A6G3 1-165, looked up, NMN deamidase PncC (EC 3.5.1.42), E. coli; the enzyme consists of 165 residues, 17.6 kDa; expressed from pCA24N-pncC; also called WT PncC; wild-type PncC; source: E. coli BL21(DE3), purified (HisTrap HP column, dialysis); not shown: His tag (from the HisTrap HP purification)) MTDSELMQLSEQVGQALKARGATVTTAESCTGGWVAKVITDIAGSSAWFERGFVTYSNEAKAQMIGVREETLAQHGAVSEPVVVEMAIGALKAARADYAVSISGIAGPDGGSEEKPVGTVWFAFATARGEGITRRECFSGDRDAVRRQATAYALQTLWQQFLQNT | – | – | – | – | – | – | – | – | – | – | – | – | – | – | – | – | – | – | – | 2 | –
S29A PncC (enzyme, E. coli, UniProt P0A6G3 1-165, looked up, NMN deamidase PncC (EC 3.5.1.42), E. coli; 165 residues; mutagenized pCA24N-pncC plasmid; also called PncC S29A mutant; source: E. coli BL21(DE3), purified (HisTrap HP column, dialysis); not shown: His tag (from the HisTrap HP purification)) MTDSELMQLSEQVGQALKARGATVTTAEACTGGWVAKVITDIAGSSAWFERGFVTYSNEAKAQMIGVREETLAQHGAVSEPVVVEMAIGALKAARADYAVSISGIAGPDGGSEEKPVGTVWFAFATARGEGITRRECFSGDRDAVRRQATAYALQTLWQQFLQNT | – | – | – | – | – | – | – | – | – | – | – | – | – | – | – | – | – | – | – | 2 | –
K61Q PncC (enzyme, E. coli, UniProt P0A6G3 1-165, looked up, NMN deamidase PncC (EC 3.5.1.42), E. coli; 165 residues; mutagenized pCA24N-pncC plasmid; also called PncC K61Q mutant; source: E. coli BL21(DE3), purified (HisTrap HP column, dialysis); not shown: His tag (from the HisTrap HP purification)) MTDSELMQLSEQVGQALKARGATVTTAESCTGGWVAKVITDIAGSSAWFERGFVTYSNEAQAQMIGVREETLAQHGAVSEPVVVEMAIGALKAARADYAVSISGIAGPDGGSEEKPVGTVWFAFATARGEGITRRECFSGDRDAVRRQATAYALQTLWQQFLQNT | – | – | – | – | – | – | – | – | – | – | – | – | – | – | – | – | – | – | – | 2 | –
K61Q PncC: catalytically inactive K61Q mutant of E. coli NMN deamidase PncC (protein, left off: His tag (from the HisTrap HP purification; vector pCA24N), end not stated, state not stated) MTDSELMQLSEQVGQALKARGATVTTAESCTGGWVAKVITDIAGSSAWFERGFVTYSNEAQAQMIGVREETLAQHGAVSEPVVVEMAIGALKAARADYAVSISGIAGPDGGSEEKPVGTVWFAFATARGEGITRRECFSGDRDAVRRQATAYALQTLWQQFLQNT | – | – | – | – | – | – | – | – | – | – | – | – | – | – | – | – | – | – | – | – | Tm (melting temperature of the protein) [5]: 67.5 °C
S29A PncC: catalytically inactive S29A mutant of E. coli NMN deamidase PncC (protein, left off: His tag (from the HisTrap HP purification; vector pCA24N), end not stated, state not stated) MTDSELMQLSEQVGQALKARGATVTTAEACTGGWVAKVITDIAGSSAWFERGFVTYSNEAKAQMIGVREETLAQHGAVSEPVVVEMAIGALKAARADYAVSISGIAGPDGGSEEKPVGTVWFAFATARGEGITRRECFSGDRDAVRRQATAYALQTLWQQFLQNT | – | – | – | – | – | – | – | – | – | – | – | – | – | – | – | – | – | – | – | – | Tm (melting temperature of the protein) [5]: 85.5 °C
WT PncC: wild type NMN deamidase (PncC) from E. coli, recombinant (protein, left off: His tag (from the HisTrap HP purification; vector pCA24N), end not stated, state not stated, wild type NMN deamidase (PncC) from E. coli, recombinant) MTDSELMQLSEQVGQALKARGATVTTAESCTGGWVAKVITDIAGSSAWFERGFVTYSNEAKAQMIGVREETLAQHGAVSEPVVVEMAIGALKAARADYAVSISGIAGPDGGSEEKPVGTVWFAFATARGEGITRRECFSGDRDAVRRQATAYALQTLWQQFLQNT | – | – | – | – | – | – | – | – | – | – | – | – | – | – | – | – | – | – | – | – | Tm (melting temperature of the protein) [5]: 86.1 °C
